Test results: PMC9282233 (Proceedings of the National Academy of Sciences of the …, 2022)

Target: Tsr (E. coli serine chemoreceptor) (Escherichia coli, UniProt P02942)
Experiment: in vivo FRET kinase assay
Assay type: cell-based

Sequence of Tsr (E. coli serine chemoreceptor) (P02942 whole entry): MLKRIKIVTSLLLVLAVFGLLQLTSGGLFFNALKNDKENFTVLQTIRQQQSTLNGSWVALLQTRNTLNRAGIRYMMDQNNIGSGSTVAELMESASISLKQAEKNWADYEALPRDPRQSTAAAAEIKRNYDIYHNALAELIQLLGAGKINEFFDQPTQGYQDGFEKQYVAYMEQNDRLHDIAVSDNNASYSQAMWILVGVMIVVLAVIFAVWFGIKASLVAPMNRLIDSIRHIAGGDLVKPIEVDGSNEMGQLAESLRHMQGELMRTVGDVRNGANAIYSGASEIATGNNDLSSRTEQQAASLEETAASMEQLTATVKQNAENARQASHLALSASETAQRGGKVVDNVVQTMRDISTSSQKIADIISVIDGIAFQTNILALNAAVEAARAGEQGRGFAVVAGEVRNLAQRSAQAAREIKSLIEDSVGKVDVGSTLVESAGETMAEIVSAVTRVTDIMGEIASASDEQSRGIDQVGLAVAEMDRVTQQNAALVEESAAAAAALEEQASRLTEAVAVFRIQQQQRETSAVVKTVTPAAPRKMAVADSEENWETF

`N[C@@H](CO)C(=O)O` [serine] was tested. Which IC50 did it give?
Its IC50 is 18 µM.
